COC(=O)C(C)(C)N=NC(C)(C)C(=O)OC
Details | solubility (mole fraction)
in THF, 253.85 K | 0.13
in THF, 258.55 K | 0.156
in THF, 260.95 K | 0.175
in THF, 262.85 K | 0.194
in THF, 265.15 K | 0.224
in THF, 268.85 K | 0.263
in THF, 273.65 K | 0.326
in THF, 275.95 K | 0.364
in THF, 278.45 K | 0.404
in THF, 280.65 K | 0.443
in THF, 283.15 K | 0.497
in THF, 285.65 K | 0.561
in THF, 288.05 K | 0.614
in THF, 290.55 K | 0.674
in THF, 293.15 K | 0.75
in acetone, 252.75 K | 0.0841
in acetone, 254.45 K | 0.0922
in acetone, 257.95 K | 0.112
in acetone, 261.25 K | 0.136
in acetone, 264.95 K | 0.171
in acetone, 267.65 K | 0.201
in acetone, 273.55 K | 0.276
in acetone, 275.85 K | 0.308
in acetone, 278.25 K | 0.352
in acetone, 280.55 K | 0.395
in acetone, 283.05 K | 0.454
in acetone, 285.65 K | 0.524
in acetone, 287.95 K | 0.591
in acetone, 290.45 K | 0.657
in acetone, 293.15 K | 0.734
in acetonitrile, 251.75 K | 0.0545
in acetonitrile, 255.15 K | 0.0705
in acetonitrile, 258.65 K | 0.091
in acetonitrile, 262.45 K | 0.113
in acetonitrile, 265.15 K | 0.137
in acetonitrile, 269.15 K | 0.18
in acetonitrile, 273.55 K | 0.238
in acetonitrile, 275.75 K | 0.278
in acetonitrile, 278.15 K | 0.323
in acetonitrile, 280.65 K | 0.369
in acetonitrile, 283.25 K | 0.432
in acetonitrile, 285.55 K | 0.494
in acetonitrile, 287.95 K | 0.557
in acetonitrile, 290.85 K | 0.638
in acetonitrile, 293.15 K | 0.702
in cyclohexane, 281.15 K | 0.147
in cyclohexane, 283.55 K | 0.233
in cyclohexane, 286.05 K | 0.362
in cyclohexane, 288.45 K | 0.471
in cyclohexane, 291.05 K | 0.601
in cyclohexane, 293.15 K | 0.677
in dichloromethane, 252.95 K | 0.268
in dichloromethane, 257.05 K | 0.281
in dichloromethane, 260.55 K | 0.296
in dichloromethane, 264.45 K | 0.321
in dichloromethane, 268.05 K | 0.352
in dichloromethane, 271.05 K | 0.385
in dichloromethane, 274.95 K | 0.413
in dichloromethane, 276.65 K | 0.451
in dichloromethane, 278.85 K | 0.493
in dichloromethane, 281.15 K | 0.513
in dichloromethane, 283.55 K | 0.552
in dichloromethane, 286.15 K | 0.592
in dichloromethane, 288.45 K | 0.627
in dichloromethane, 291.05 K | 0.67
in dichloromethane, 293.15 K | 0.73
in diethyl ether, 254.25 K | 0.0921
in diethyl ether, 257.95 K | 0.104
in diethyl ether, 260.55 K | 0.119
in diethyl ether, 262.45 K | 0.136
in diethyl ether, 266.75 K | 0.177
in diethyl ether, 268.15 K | 0.19
in diethyl ether, 273.55 K | 0.268
in diethyl ether, 275.65 K | 0.298
in diethyl ether, 278.05 K | 0.361
in diethyl ether, 280.55 K | 0.4
in diethyl ether, 282.85 K | 0.46
in diethyl ether, 285.55 K | 0.543
in diethyl ether, 287.95 K | 0.599
in diethyl ether, 290.45 K | 0.667
in diethyl ether, 293.15 K | 0.743
in ethanol, 252.85 K | 0.0094
in ethanol, 256.15 K | 0.011
in ethanol, 258.65 K | 0.0133
in ethanol, 261.85 K | 0.0165
in ethanol, 265.85 K | 0.0255
in ethanol, 268.55 K | 0.0344
in ethanol, 273.25 K | 0.0568
in ethanol, 275.85 K | 0.0726
in ethanol, 278.15 K | 0.094
in ethanol, 280.65 K | 0.123
in ethanol, 283.15 K | 0.17
in ethanol, 285.65 K | 0.238
in ethanol, 288.05 K | 0.329
in ethanol, 291.05 K | 0.481
in ethanol, 293.25 K | 0.625
in ethyl acetate, 252.15 K | 0.107
in ethyl acetate, 255.15 K | 0.114
in ethyl acetate, 257.85 K | 0.134
in ethyl acetate, 260.15 K | 0.146
in ethyl acetate, 263.65 K | 0.185
in ethyl acetate, 269.25 K | 0.246
in ethyl acetate, 273.65 K | 0.308
in ethyl acetate, 276.15 K | 0.342
in ethyl acetate, 278.45 K | 0.389
in ethyl acetate, 280.85 K | 0.433
in ethyl acetate, 283.25 K | 0.492
in ethyl acetate, 285.65 K | 0.558
in ethyl acetate, 288.05 K | 0.611
in ethyl acetate, 290.55 K | 0.668
in ethyl acetate, 293.25 K | 0.744
in isobutanol, 252.65 K | 0.0055
in isobutanol, 256.55 K | 0.0084
in isobutanol, 259.45 K | 0.0111
in isobutanol, 262.95 K | 0.013
in isobutanol, 265.65 K | 0.0155
in isobutanol, 269.35 K | 0.0205
in isobutanol, 273.55 K | 0.0388
in isobutanol, 275.95 K | 0.0587
in isobutanol, 278.15 K | 0.0813
in isobutanol, 280.65 K | 0.122
in isobutanol, 283.45 K | 0.194
in isobutanol, 285.75 K | 0.279
in isobutanol, 288.05 K | 0.355
in isobutanol, 290.95 K | 0.521
in isobutanol, 293.15 K | 0.643
in isopropanol, 252.05 K | 0.0065
in isopropanol, 256.25 K | 0.0081
in isopropanol, 258.95 K | 0.01
in isopropanol, 262.45 K | 0.0141
in isopropanol, 265.75 K | 0.0199
in isopropanol, 268.75 K | 0.0272
in isopropanol, 273.35 K | 0.0484
in isopropanol, 275.45 K | 0.0653
in isopropanol, 278.05 K | 0.0853
in isopropanol, 280.75 K | 0.137
in isopropanol, 283.15 K | 0.189
in isopropanol, 285.45 K | 0.26
in isopropanol, 287.95 K | 0.345
in isopropanol, 290.85 K | 0.5
in isopropanol, 293.15 K | 0.627
in methanol, 252.95 K | 0.0142
in methanol, 255.35 K | 0.0156
in methanol, 257.65 K | 0.0169
in methanol, 261.55 K | 0.0203
in methanol, 265.35 K | 0.0253
in methanol, 267.15 K | 0.0308
in methanol, 273.55 K | 0.0633
in methanol, 275.85 K | 0.0722
in methanol, 278.65 K | 0.0863
in methanol, 280.65 K | 0.122
in methanol, 283.05 K | 0.182
in methanol, 285.55 K | 0.248
in methanol, 288.15 K | 0.364
in methanol, 290.65 K | 0.482
in methanol, 293.15 K | 0.626
in n-butanol, 252.35 K | 0.0064
in n-butanol, 256.35 K | 0.0076
in n-butanol, 259.15 K | 0.0091
in n-butanol, 262.55 K | 0.0111
in n-butanol, 265.55 K | 0.0145
in n-butanol, 269.75 K | 0.0232
in n-butanol, 273.65 K | 0.0385
in n-butanol, 276.15 K | 0.0541
in n-butanol, 278.35 K | 0.0801
in n-butanol, 281.15 K | 0.123
in n-butanol, 283.55 K | 0.18
in n-butanol, 285.65 K | 0.251
in n-butanol, 288.15 K | 0.33
in n-butanol, 291.05 K | 0.486
in n-butanol, 293.15 K | 0.63
in n-propanol, 253.35 K | 0.0088
in n-propanol, 257.05 K | 0.0107
in n-propanol, 259.65 K | 0.0133
in n-propanol, 262.15 K | 0.0162
in n-propanol, 266.25 K | 0.0234
in n-propanol, 271.05 K | 0.0385
in n-propanol, 274.95 K | 0.0613
in n-propanol, 276.65 K | 0.0783
in n-propanol, 278.85 K | 0.098
in n-propanol, 281.15 K | 0.125
in n-propanol, 283.55 K | 0.173
in n-propanol, 286.15 K | 0.25
in n-propanol, 288.45 K | 0.352
in n-propanol, 291.05 K | 0.47
in n-propanol, 293.15 K | 0.611
in tetrachloromethane, 252.55 K | 0.109
in tetrachloromethane, 256.95 K | 0.125
in tetrachloromethane, 260.35 K | 0.144
in tetrachloromethane, 264.05 K | 0.182
in tetrachloromethane, 266.85 K | 0.214
in tetrachloromethane, 269.55 K | 0.242
in tetrachloromethane, 273.65 K | 0.314
in tetrachloromethane, 276.15 K | 0.349
in tetrachloromethane, 278.45 K | 0.393
in tetrachloromethane, 280.75 K | 0.445
in tetrachloromethane, 283.35 K | 0.506
in tetrachloromethane, 285.75 K | 0.564
in tetrachloromethane, 288.15 K | 0.632
in tetrachloromethane, 290.55 K | 0.696
in toluene, 253.45 K | 0.104
in toluene, 256.35 K | 0.119
in toluene, 259.55 K | 0.141
in toluene, 262.55 K | 0.161
in toluene, 264.85 K | 0.184
in toluene, 269.55 K | 0.237
in toluene, 273.65 K | 0.286
in toluene, 276.05 K | 0.326
in toluene, 278.25 K | 0.367
in toluene, 280.65 K | 0.41
in toluene, 283.15 K | 0.47
in toluene, 285.55 K | 0.545
in toluene, 288.05 K | 0.597
in toluene, 290.95 K | 0.67
in toluene, 293.15 K | 0.731

— BigSolDB 2.1
